Our source for the Ki and melting point values is patent US8586579B2, “Anellated pyridine compounds” (Hoffmann-La Roche Inc., priority 2010, dated 2013).

Each structure is given as a SMILES string. Read-outs that look alike come from different tables or passages of the source.

One data set addresses human D2 receptor (Homo sapiens (Human), UniProt P14416). As to the kind of experiment: Radioligand binding assay, [3H]-spiperone, human D2 receptor. The settings on record: membranes of HEK293 EBNA cells expressing human D2; 0.7 nM [3H]-spiperone. The essentials: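 Membranes from HEK293 EBNA cells transiently expressing human D2 were incubated 1 h at RT with ~0.7 nM [3H]-spiperone and ten compound concentrations (10 μM–0.1 nM) in Tris buffer with NaCl, MgCl2, KCl, CaCl2, EDTA, pH 7.4.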

The target in a further data set is human 5-HT2A receptor (Homo sapiens (Human), UniProt P28223). As to the kind of experiment: Radioligand binding assay, [3H]-ketanserin, human 5-HT2A receptor. The essentials: (§1)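 Membranes from transiently transfected HEK293 EBNA cells were incubated 1 h at RT with ten compound concentrations (10 μM-0.1 nM) and radioligand: 0.5 nM [3H]-spiperone for D3 (Tris/NaCl/Mg/Ca buffer, pH 7.4) or 1.1 nM [3H]-ketanserin for 5-HT2A (Tris/MgCl2/EGTA, pH 7.4).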
Chain of human 5-HT2A receptor (P28223 whole entry): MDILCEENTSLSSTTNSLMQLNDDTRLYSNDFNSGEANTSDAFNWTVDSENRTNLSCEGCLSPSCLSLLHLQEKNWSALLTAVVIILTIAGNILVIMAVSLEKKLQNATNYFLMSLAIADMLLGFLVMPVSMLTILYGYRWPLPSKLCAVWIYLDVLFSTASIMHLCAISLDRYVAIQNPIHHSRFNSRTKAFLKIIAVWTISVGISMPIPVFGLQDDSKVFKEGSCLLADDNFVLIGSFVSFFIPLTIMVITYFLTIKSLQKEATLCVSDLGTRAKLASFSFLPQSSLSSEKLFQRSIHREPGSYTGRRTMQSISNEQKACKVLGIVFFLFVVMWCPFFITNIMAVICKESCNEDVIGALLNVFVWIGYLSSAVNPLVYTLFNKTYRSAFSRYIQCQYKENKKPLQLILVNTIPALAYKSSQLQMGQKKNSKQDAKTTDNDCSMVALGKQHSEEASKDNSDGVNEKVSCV

The target in another data set is human D3 receptor (Homo sapiens (Human), UniProt P35462). Briefly: Radioligand binding assay, [3H]-spiperone, human D3 receptor. The note with it: membranes of HEK293 EBNA cells expressing human D3; 0.5 nM [3H]-spiperone. The essentials: as §1
Chain of human D3 receptor (P35462 whole entry): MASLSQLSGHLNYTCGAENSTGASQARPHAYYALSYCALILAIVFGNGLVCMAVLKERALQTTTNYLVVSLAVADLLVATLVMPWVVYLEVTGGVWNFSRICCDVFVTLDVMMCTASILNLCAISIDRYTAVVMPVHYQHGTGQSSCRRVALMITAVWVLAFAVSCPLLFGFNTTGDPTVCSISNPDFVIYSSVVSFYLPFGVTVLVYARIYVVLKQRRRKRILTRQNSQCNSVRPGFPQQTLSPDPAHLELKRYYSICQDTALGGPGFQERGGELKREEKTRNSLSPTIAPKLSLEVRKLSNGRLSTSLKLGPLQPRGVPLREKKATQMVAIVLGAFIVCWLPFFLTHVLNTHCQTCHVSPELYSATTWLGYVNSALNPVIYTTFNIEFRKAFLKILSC
Where [1] appears, read: membranes of HEK293 EBNA cells expressing human 5-HT2A, 1.1 nM [3H]-ketanserin.

Chain of human D2 receptor (P14416 whole entry): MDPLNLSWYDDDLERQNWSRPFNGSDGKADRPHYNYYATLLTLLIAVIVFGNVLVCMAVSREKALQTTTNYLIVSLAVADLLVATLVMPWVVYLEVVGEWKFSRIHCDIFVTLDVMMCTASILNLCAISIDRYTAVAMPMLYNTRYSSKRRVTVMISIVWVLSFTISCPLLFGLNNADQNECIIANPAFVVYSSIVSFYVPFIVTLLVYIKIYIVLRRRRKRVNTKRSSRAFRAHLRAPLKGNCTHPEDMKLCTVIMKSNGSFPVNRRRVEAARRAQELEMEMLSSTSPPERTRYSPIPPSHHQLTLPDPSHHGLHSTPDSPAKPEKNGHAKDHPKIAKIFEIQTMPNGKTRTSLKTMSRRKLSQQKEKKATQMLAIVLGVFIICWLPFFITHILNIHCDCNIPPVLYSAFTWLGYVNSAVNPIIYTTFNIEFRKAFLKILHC

In turn, `Cc1cc2occc2c(N2CCN(CC[C@H]3CC[C@H](NC(=O)C4CCOCC4)CC3)CC2)n1` [Example 97, trans-Tetrahydro-pyran-4-carboxylic acid (4-{2-[4-(6-methyl-furo[3,2-c]pyridin-4-yl)-piperazin-1-yl]-ethyl}-cyclohexyl)-amide] showed a melting point of 219 °C. Also, the Ki at human D2 receptor is 0.275 µM. For the same molecule, the inhibitory constant (Ki) at human 5-HT2A receptor came to 0.0255 µM. Further, the Ki at human D3 receptor is 0.0142 µM.

In turn, `Cc1cc2occc2c(N2CCN(CC[C@H]3CC[C@H](NC(=O)CC4CCOCC4)CC3)CC2)n1` [Example 98, trans-N-(4-{2-[4-(6-Methyl-furo[3,2-c]pyridin-4-yl)-piperazin-1-yl]-ethyl}-cyclohexyl)-2-(tetrahydro-pyran-4-yl)-acetamide] had a melting point of 212.5 °C. Besides, at human D2 receptor, the Ki is 0.641 µM. Also, the Ki on human 5-HT2A receptor (setting [1]) stood at 0.0759 µM. Also, the Ki at human D3 receptor is 0.00945 µM.

As to `COCCC(=O)N[C@H]1CC[C@H](CCN2CCN(c3nc(C)cc4occc34)CC2)CC1` [Example 99, trans-3-Methoxy-N-(4-{2-[4-(6-methyl-furo[3,2-c]pyridin-4-yl)-piperazin-1-yl]-ethyl}-cyclohexyl)-propionamide], the melting point stood at 158 °C. Also, the Ki on human D2 receptor was 0.43 µM. For the same molecule, the Ki on human 5-HT2A receptor (setting [1]) came to 0.0869 µM. Moreover, the Ki at human D3 receptor turned out to be 0.0048 µM.

As for `CC(=O)N[C@H]1CC[C@H](CCN2CCN(c3nc(C)cc4c3CCO4)CC2)CC1` [Example 100, trans-N-(4-{2-[4-(6-Methyl-2,3-dihydro-furo[3,2-c]pyridin-4-yl)-piperazin-1-yl]-ethyl}-cyclohexyl)-acetamide], the melting point came out at 217.5 °C. Further, the Ki on human D2 receptor is 0.915 µM. Besides, the Ki at human 5-HT2A receptor (setting [1]) is 0.215 µM. For the same molecule, the Ki on human D3 receptor came out at 0.00758 µM.

Take `Cc1cc2c(c(N3CCN(CC[C@H]4CC[C@H](NC(=O)C5CCOCC5)CC4)CC3)n1)CCO2` [Example 101, Tetrahydro-pyran-4-carboxylic acid trans-(4-{2-[4-(6-methyl-2,3-dihydro-furo[3,2-c]pyridin-4-yl)-piperazin-1-yl]-ethyl}-cyclohexyl)-amide]: the melting point was 234.5 °C. Besides, the Ki at human D2 receptor is 1.95 µM. The Ki on human 5-HT2A receptor (setting [1]) is 0.0585 µM. Further, at human D3 receptor, the Ki turned out to be 0.0346 µM.

`Cc1cc2c(c(N3CCN(CC[C@H]4CC[C@H](NC(=O)CC5CCOCC5)CC4)CC3)n1)CCO2` [Example 102, trans-N-(4-{2-[4-(6-Methyl-2,3-dihydro-furo[3,2-c]pyridin-4-yl)-piperazin-1-yl]-ethyl}-cyclohexyl)-2-(tetrahydro-pyran-4-yl)-acetamide] gave a melting point of 218.5 °C. Also, the Ki at human D2 receptor was 1.94 µM. For the same molecule, the Ki at human 5-HT2A receptor (setting [1]) worked out at 0.193 µM. Moreover, at human D3 receptor, the Ki is 0.0187 µM.

`COCCC(=O)N[C@H]1CC[C@H](CCN2CCN(c3nc(C)cc4c3CCO4)CC2)CC1` [Example 103, trans-3-Methoxy-N-(4-{2-[4-(6-methyl-2,3-dihydro-furo[3,2-c]pyridin-4-yl)-piperazin-1-yl]-ethyl}-cyclohexyl)-propionamide] displayed a melting point of 178.5 °C. At human D2 receptor, the Ki turned out to be 1.49 µM. In addition, the Ki at human 5-HT2A receptor (setting [1]) was determined as 0.255 µM. For the same molecule, the Ki on human D3 receptor came out at 0.0118 µM.

Take `CC(=O)N[C@H]1CC[C@H](CCN2CCN(c3ncc(C)c4occc34)CC2)CC1` [Example 104, trans-N-(4-{2-[4-(7-Methyl-furo[3,2-c]pyridin-4-yl)-piperazin-1-yl]-ethyl}-cyclohexyl)-acetamide]: the melting point amounted to 208 °C. For the same molecule, the Ki at human D2 receptor was 1.46 µM. For the same molecule, the Ki on human 5-HT2A receptor (setting [1]) is 0.0137 µM. Further, on human D3 receptor, the Ki was determined as 0.0215 µM.

For `Cc1cnc(N2CCN(CC[C@H]3CC[C@H](NC(=O)C4CCOCC4)CC3)CC2)c2ccoc12` [Example 105, trans-Tetrahydro-pyran-4-carboxylic acid (4-{2-[4-(7-methyl-furo[3,2-c]pyridin-4-yl)-piperazin-1-yl]-ethyl}-cyclohexyl)-amide], the melting point was determined as 228 °C. In addition, on human D2 receptor, the Ki amounted to 1.13 µM. Further, the inhibition constant (Ki) at human 5-HT2A receptor stood at 0.00567 µM. Besides, on human D3 receptor, the Ki stood at 0.0727 µM.

`Cc1cnc(N2CCN(CC[C@H]3CC[C@H](NC(=O)CC4CCOCC4)CC3)CC2)c2ccoc12` [Example 106, trans-N-(4-{2-[4-(7-Methyl-furo[3,2-c]pyridin-4-yl)-piperazin-1-yl]-ethyl}-cyclohexyl)-2-(tetrahydro-pyran-4-yl)-acetamide] gave a melting point of 205.5 °C. In addition, the Ki at human D2 receptor was 2.72 µM. Also, the Ki on human 5-HT2A receptor (setting [1]) was determined as 0.0117 µM. Also, the Ki on human D3 receptor is 0.038 µM.

For the molecule `COCCC(=O)N[C@H]1CC[C@H](CCN2CCN(c3ncc(C)c4occc34)CC2)CC1` [Example 107, trans-3-Methoxy-N-(4-{2-[4-(7-methyl-furo[3,2-c]pyridin-4-yl)-piperazin-1-yl]-ethyl}-cyclohexyl)-propionamide], the melting point was determined as 177 °C. Moreover, the Ki on human D2 receptor came to 2.47 µM. On human 5-HT2A receptor (setting [1]), the Ki came to 0.012 µM. The Ki at human D3 receptor stood at 0.03 µM.

As for `CC(=O)N[C@H]1CC[C@H](CCN2CCN(c3ncc(C)c4c3CCO4)CC2)CC1` [Example 108, trans-N-(4-{2-[4-(7-Methyl-2,3-dihydro-furo[3,2-c]pyridin-4-yl)-piperazin-1-yl]-ethyl}-cyclohexyl)-acetamide], the melting point is 196.5 °C. In addition, the inhibition constant (Ki) at human D2 receptor was 2.31 µM. The inhibitory constant (Ki) at human 5-HT2A receptor (setting [1]) was found to be 0.0675 µM. Moreover, on human D3 receptor, the Ki stood at 0.0482 µM.

`Cc1cnc(N2CCN(CC[C@H]3CC[C@H](NC(=O)C4CCOCC4)CC3)CC2)c2c1OCC2` [Example 109, Tetrahydro-pyran-4-carboxylic acid trans-(4-{2-[4-(7-methyl-2,3-dihydro-furo[3,2-c]pyridin-4-yl)-piperazin-1-yl]-ethyl}-cyclohexyl)-amide]: the melting point worked out at 223.5 °C. Besides, at human D2 receptor, the Ki is 4.51 µM. The Ki on human 5-HT2A receptor (setting [1]) turned out to be 0.0197 µM. In addition, the Ki at human D3 receptor is 0.0987 µM.

In turn, `Cc1cnc(N2CCN(CC[C@H]3CC[C@H](NC(=O)CC4CCOCC4)CC3)CC2)c2c1OCC2` [Example 110, trans-N-(4-{2-[4-(7-Methyl-2,3-dihydro-furo[3,2-c]pyridin-4-yl)-piperazin-1-yl]-ethyl}-cyclohexyl)-2-(tetrahydro-pyran-4-yl)-acetamide] yielded a melting point of 199 °C. Besides, the Ki at human D2 receptor was 2.95 µM. Further, the Ki on human 5-HT2A receptor (setting [1]) was 0.044 µM. Further, the Ki on human D3 receptor is 0.0694 µM.

`COCCC(=O)N[C@H]1CC[C@H](CCN2CCN(c3ncc(C)c4c3CCO4)CC2)CC1` [Example 111, trans-3-Methoxy-N-(4-{2-[4-(7-methyl-2,3-dihydro-furo[3,2-c]pyridin-4-yl)-piperazin-1-yl]-ethyl}-cyclohexyl)-propionamide] gave a melting point of 163.5 °C. For the same molecule, the Ki at human D2 receptor was found to be 3.56 µM. Besides, at human 5-HT2A receptor (setting [1]), the Ki worked out at 0.037 µM. The inhibition constant (Ki) at human D3 receptor was 0.0468 µM.

The molecule `COC(CC(=O)N[C@H]1CC[C@H](CCN2CCN(c3nccc4c3CCO4)CC2)CC1)OC` [Example 113, trans-N-(4-{2-[4-(2,3-Dihydro-furo[3,2-c]pyridin-4-yl)-piperazin-1-yl]-ethyl}-cyclohexyl)-3,3-dimethoxy-propionamide] registered a melting point of 220 °C. For the same molecule, the Ki on human D2 receptor was 1.38 µM. The Ki at human 5-HT2A receptor (setting [1]) turned out to be 0.0157 µM. For the same molecule, the Ki on human D3 receptor stood at 0.0193 µM.

`COC(CCC(=O)N[C@H]1CC[C@H](CCN2CCN(c3nccc4c3CCO4)CC2)CC1)OC` [Example 114, trans-N-(4-{2-[4-(2,3-Dihydro-furo[3,2-c]pyridin-4-yl)-piperazin-1-yl]-ethyl}-cyclohexyl)-4,4-dimethoxy-butyramide]: the melting point was 205.5 °C. In addition, the Ki on human D2 receptor turned out to be 2.37 µM. The inhibition constant (Ki) at human 5-HT2A receptor (setting [1]) worked out at 0.0181 µM. Also, on human D3 receptor, the inhibition constant (Ki) came out at 0.068 µM.

On to `CS(=O)(=O)c1ccc(C(=O)N[C@H]2CC[C@H](CCN3CCN(c4nccc5c4CCO5)CC3)CC2)s1` [Example 115, 5-Methanesulfonyl-thiophene-2-carboxylic acid trans-(4-{2-[4-(2,3-dihydro-furo[3,2-c]pyridin-4-yl)-piperazin-1-yl]-ethyl}-cyclohexyl)-amide], for which the melting point was 229 °C. Further, the Ki at human D2 receptor was 0.516 µM. Also, on human 5-HT2A receptor (setting [1]), the Ki came out at 0.00946 µM. Besides, the Ki on human D3 receptor was found to be 0.0338 µM.

For the molecule `N#Cc1ccc(C(=O)N[C@H]2CC[C@H](CCN3CCN(c4nccc5c4CCO5)CC3)CC2)cc1` [Example 117, trans-4-Cyano-N-(4-{2-[4-(2,3-dihydro-furo[3,2-c]pyridin-4-yl)-piperazin-1-yl]-ethyl}-cyclohexyl)-benzamide], the melting point stood at 243.5 °C. The Ki on human D2 receptor is 0.381 µM. In addition, the Ki on human 5-HT2A receptor (setting [1]) stood at 0.013 µM. Besides, the Ki at human D3 receptor is 0.028 µM.

`CN1CCN(c2ccc(C(=O)N[C@H]3CC[C@H](CCN4CCN(c5nccc6c5CCO6)CC4)CC3)cc2)CC1` [Example 118, trans-N-(4-{2-[4-(2,3-Dihydro-furo[3,2-c]pyridin-4-yl)-piperazin-1-yl]-ethyl}-cyclohexyl)-4-(4-methyl-piperazin-1-yl)-benzamide] had a melting point of 236 °C. Further, on human D2 receptor, the Ki amounted to 0.179 µM. The Ki at human 5-HT2A receptor (setting [1]) is 0.00451 µM. Further, at human D3 receptor, the Ki amounted to 0.0147 µM.
